The source of these data is article PMC10429771, “Bioorthogonal activation of prodrugs, for the potential treatment of breast cancer, using the Staudinger reaction” (RSC Medicinal Chemistry, 2023).

Data set [1] is described as follows: Cell viability of L929 cells after azide-modified sugars (MTT). Format: cell-based. Particulars: mouse, L929 fibroblast cells, 50 μM sugar, no change compared to control.
Data set [2] concerns L929 cells. The data set can be described thus: Azide-reporter generation by Western blotting, L929. The format is cell-based, mouse. The note with it: 50 μM, 72 h; lysates reacted with phosphine-PEG3-biotin. Here is the method: (§1) For azide generation analysis in breast cancer cells and mouse fibroblasts, MCF-7 cells were cultured in 5% fetal bovine serum and RPMI 1640 medium and L929 cells were cultured in 10% fetal bovine serum and DMEM medium at 37 °C in a 5% CO2 incubator.
To analyse the engineered azide groups in glycoproteins in vitro, 4 × 10^4 cell per mL of MCF-7 and 1 × 10^4 cell per mL of L929 cells were seeded into 6-well plates and incubated with 50 μM Ac4ManNAz-, 4-, and 5-containing medium for 72 h at 37 °C CO2 incubator, respectively. Cells were then washed twice with ice cold PBS and lysed using ice cold RIPA buffer (Thermo Fisher Scientific, UK) with 1% protease inhibitor cocktail. Lysates were centrifuged at 12 000 rpm for 10 min at 4 °C to remove cell debris. The total protein of each sample was quantified by DC assay (Bio-rad DC Protein Assay Kit, Bio-rad, UK). The lysates were then incubated with 0.5 μM phosphine-PEG3-biotin (Thermo Fisher Scientific, UK) for 12 h at room temperature. The proteins from each sample were mixed with 1× sodium dodecyl sulfate (SDS) gel-loading buffer (125 mol L^−1 Tris, pH 6.8, 5% glycerol, 2% SDS, 1% β-mercaptoethanol, and 0.006% bromophenol blue) and boiled for 5 min. Then, 20 μg of proteins was separated by 8% SDS – polyacrylamide gel electrophoresis and transferred onto PVDF membranes. The membranes were blocked for 1.5 h at room temperature in 0.5% bovine serum albumin (BSA) containing 1× TBST solution (10 mol L^−1 Tris, pH 7.4, 100 mol L^−1 NaCl, and 0.1% Tween 20). Then, the membranes were incubated with streptavidin-HRP (Cell Signalling Technology, UK) containing 1× TBST solution for overnight at 4 °C. Next day, the membranes were washed three times using 1× TBST and protein band was detected with an ECL system.
For orientation: In a reporter assay the amount or activity of a reporter protein is the signal.

Data set [3] has as its system MCF-7 cells. The data set can be described thus: Azide-reporter generation by confocal microscopy (DBCO-Cy5 MFI), MCF-7. The format is cell-based, human. The note with it: breast cancer MCF-7 versus normal fibroblast L929. Here is the method: as §1
(§2) For fluorescence quantification, 4 × 10^4 cell per mL of MCF-7 and 1 × 10^4 cell per mL of L929 cells were seeded into a 35 mm covered glass-bottom dishes and incubated with 50 μM Ac4ManNAz-, 4-, and 5-containing medium for 72 h at 37 °C CO2 incubator, respectively. Then to visualize the azide groups, the sugar-containing medium was removed and the cells were washed twice with PBS and further incubated with 20 μM dibenzylcyclooctyne-conjugated Cy5 (DBCO-Cy5)-containing fresh medium for 1 h at 37 °C. Then, the cells were washed twice with PBS and fixed with formaldehyde fixative for 10 min in dark conditions. After fixation, the cells were washed twice with PBS and mounted with 4,6-diamidino-2-phenylindole (DAPI) (5 μg mL^−1). The cells were observed using a confocal laser microscope (Nikon A1R Confocal with 405, 445, 488, 514, 561 and 640 nm lasers). The mean fluorescence intensity was analyzed using ImageJ software and the data were represented as absolute values.

Data set [4] relates to L929 cells. The data set can be described thus: Azide-reporter generation by confocal microscopy (DBCO-Cy5 MFI), L929. The format is cell-based, mouse. Particulars: 50 μM, 72 h; DBCO-Cy5 20 μM 1 h. The protocol:
as §1, §2

The test system of data set [5] is MCF-7 cells. The data set can be described thus: MTT assay, prodrug activation and anticancer activity in MCF-7 cells. The format is cell-based, human. Particulars: for IC50: Homo sapiens, MTT, mean ± SEM (n = 3). The protocol:
(§3) The in vitro prodrug activation and anticancer activity of compounds 10 and 12 was determined using the MTT assay. MCF-7 cells or L929 cells were incubated with 50 μM Ac4ManNAz-, 4-, and 5-containing RPMI medium or 50 μM Ac4ManNAz-, 4-, and 5-containing DMEM medium, respectively for 72 h at 37 °C CO2 incubator as described above. Then, the engineered and non-engineered MCF-7 cells or L929 cells were seeded on 96-well plates (4 × 10^4 cells per mL) or (1 × 10^5 cells per mL), respectively and incubated at 37 °C for 24 h. Cells were then treated with a range of concentration of both prodrugs 10 and 12 (0.001–10 μM) and incubated for 72 h. After incubation, the treatments-containing medium was removed and 20 μL of 0.5 mg mL^−1 MTT in PBS solution was added in each well for 4 h. The resulting formazan crystals were dissolved in 100 μL of DMSO after carefully removing the MTT solution. The absorbance was recorded at 570 nm by InfiniteF50 TECAN microplate reader. The cells without any treatment were used as the control. Assays were performed in three replicates, which the statistical mean and standard deviation were used to estimate the cell viability. IC50 (inhibitory concentration to induce 50% cell death) values were determined using GraphPad Prism 8.0.2 according to the fitted data.

The subject of data set [6] is L929 cells. Nature of the data set: MTT assay, prodrug activation and cytotoxicity in L929 cells. Format: cell-based, mouse. The note with it: for prodrug activation on L929 cells: L929 cells pre-treated with azido-sialic acid derivatives 4 and 5, 50 μM; for IC50: Mus musculus, MTT, mean ± SEM (n = 3); for IC50 on L929 cells relative to MCF-7 cells: non-engineered cells, L929 IC50 higher than MCF-7 IC50. The protocol:
as §3

Setting [7] is: MCF7, 4-engineered MCF-7 cells (50 μM 4, 72 h pre-treatment).
[8] abbreviates: MCF7, 5-engineered MCF-7 cells (50 μM 5, 72 h pre-treatment).
Where [9] appears, read: MCF7, 72 h, non-engineered MCF-7 cells, 72 h.
Where [10] appears, read: MCF7, Ac4ManNAz-engineered MCF-7 cells (50 μM, 72 h pre-treatment).
Setting [11] is: L929, 4-engineered L929 cells (50 μM 4, 72 h pre-treatment).
The mark [12] stands for this setting: L929, 5-engineered L929 cells (50 μM 5, 72 h pre-treatment).
Where [13] appears, read: L929, 72 h, non-engineered L929 cells, 72 h.
[14] abbreviates: L929, Ac4ManNAz-engineered L929 cells (50 μM, 72 h pre-treatment).

In the case of `CC(=O)N[C@H]1[C@H]([C@H](OC(C)=O)[C@@H](CN=[N+]=[N-])OC(C)=O)O[C@@](OC(C)=O)(C(=O)O)C[C@@H]1OC(C)=O` [Compound 5, 9-Azido-5-acetamido-2,4,7,8-tetracetyl-3,5,9-trideoxy-β-D-glycero-D-galacto-2-nonulosonic acid], in data set [1], the viability – broadly, a read-out of living cells in per cent, often relative to untreated cells – at 50 µM worked out at 122 ± 5.5%. For the same compound, the “azide incorporation in L929 cells (Western blotting)” value (“azide incorporation in L929 cells” for short) with L929 cells [2] is “did not show any azide-reporter generation”. Also, the “higher azide expression on MCF-7 cells versus L929 cells” value with MCF-7 cells [3] was ~17 fold. In the data set with L929 cells [4], the “fluorescence in L929 cells (confocal)” value is “did not show any fluorescence”.
Turning to `CC(=O)OC[C@H]1OC(OC(C)=O)[C@@H](NC(=O)CN=[N+]=[N-])[C@@H](OC(C)=O)[C@@H]1OC(C)=O` (stereo partly drawn) [Ac4ManNAz, Tetra-O-acetyl azidomannosamine, reference compound], the viability at 50 µM in data set [1] came out at 97.5 ± 5.2%. Also, the “azide incorporation in L929 cells” value with L929 cells [2] was “caused the azide incorporation”.
For the compound `COc1cccc2c1C(=O)c1c(O)c3c(c(O)c1C2=O)C[C@@](O)(C(=O)CO)C[C@@H]3OC1C[C@@H](NC(=O)c2ccccc2P(c2ccccc2)c2ccccc2)[C@@H](O)[C@@H](C)O1` (stereo partly drawn) [Dox-prodrug 12, 2-(Diphenylphosphino)-N-((2R,3R,4R)-3-hydroxy-2-methyl-6-(((1S,3S)-3,5,12-trihydroxy-3-(2-hydroxyacetyl)-10-methoxy-6,11-dioxo-1,2,3,4,6,11-hexahydrotetracen-1-yl)oxy)tetrahydro-2H-pyran-4-yl)benzamide], the IC50 (commonly the concentration that gives 50% inhibition) in the data set with MCF-7 cells [5] (setting [7]) worked out at 0.5 ± 0.03 µM; in the data set on MCF-7 cells [5] (setting [8]), 1.6 ± 0.09 µM; in the data set with MCF-7 cells [5] (setting [9]), 4.6 ± 0.19 µM; in the data set with MCF-7 cells [5] (setting [10]) it was 0.2 ± 0.01 µM; in the data set with L929 cells [6] (setting [11]) it was 11.2 ± 1.04 µM; with L929 cells [6] (setting [12]), 10.7 ± 0.22 µM. For the same compound, the IC50 in the data set on L929 cells [6] (setting [13]) came to 11.3 ± 0.23 µM; in the data set with L929 cells [6] (setting [14]) it was 7.7 ± 0.26 µM. Moreover, the “decrease in potency of prodrug versus doxorubicin” value in the data set with MCF-7 cells [5] (non-engineered MCF-7 cells, IC50 of prodrug 12 vs doxorubicin 11) is “more than 20 fold”. Besides, the “prodrug activation on L929 cells” value in the data set with L929 cells [6] is listed as “No activation”. In addition, in the data set on L929 cells [6], the “IC50 on L929 cells relative to MCF-7 cells” value was “approximately 2 fold”.
Turning to `COc1cccc2c1C(=O)c1c(O)c3c(c(O)c1C2=O)C[C@@](O)(C(=O)CO)C[C@@H]3O[C@H]1C[C@H](N)[C@H](O)[C@H](C)O1` [Doxorubicin 11, doxorubicin, reference compound], the IC50 in the data set with MCF-7 cells [5] (setting [9]) worked out at 0.2 ± 0.03 µM; in the data set with L929 cells [6] (setting [13]) it was 2.04 ± 0.009 µM.
As for `CC(=O)N[C@H]1[C@H]([C@H](O)[C@H](O)CN=[N+]=[N-])OC(O)(C(=O)O)C[C@@H]1O` (stereo in doubt) [Compound 4, 9-Azido-5-acetamido-3,5,9-trideoxy-β-D-glycero-D-galacto-2-nonulosonic acid], the viability at 50 µM in data set [1] is 92.4 ± 1.6%. Further, the “azide incorporation in L929 cells” value in the data set on L929 cells [2] was “did not show any azide-reporter generation”. Further, in the data set with MCF-7 cells [3], the “higher azide expression on MCF-7 cells versus L929 cells” value is recorded as ~17 fold. The “fluorescence in L929 cells (confocal)” value in the data set with L929 cells [4] was “did not show any fluorescence”.
Turning to `O=C(Nc1ccc(N(CCCl)CCCl)cc1)c1ccccc1P(c1ccccc1)c1ccccc1` [N-mustard prodrug 10, N-(4-(Bis(2-chloroethyl)amino)phenyl)-2-(diphenylphosphaneyl)benzamide], the IC50 worked out at 2.1 ± 1.11 µM in the data set with MCF-7 cells [5] (setting [7]); 9.3 ± 0.63 µM in the data set with MCF-7 cells [5] (setting [8]); 20.8 ± 1.27 µM with MCF-7 cells [5] (setting [9]); 0.6 ± 0.08 µM in the data set on MCF-7 cells [5] (setting [10]); 29.9 ± 0.69 µM with L929 cells [6] (setting [11]); 29.7 ± 1.2 µM in the data set on L929 cells [6] (setting [12]). For the same compound, the results for the IC50 with L929 cells [6] (setting [13]) and in the data set with L929 cells [6] (setting [14]) were 31.4 ± 0.44 µM and 21.1 ± 0.58 µM, respectively. The “prodrug activation on L929 cells” value in the data set on L929 cells [6] is recorded as “No activation”. In the data set on L929 cells [6], the “IC50 on L929 cells relative to MCF-7 cells” value is listed as “approximately 2 fold”.
